Assay results from ChEMBL document CHEMBL5291721, “A preclinical secondary pharmacology resource illuminates target-adverse drug reaction associations of marketed drugs” (Nat Commun, 2023).
“And” between values parts separate entries of the source, which are not always exact repeats. Equal entries are not always repeated. One block for each compound: values may come before it.

Experiments:
[1] = target: T1, 5-hydroxytryptamine receptor 1A (Homo sapiens, UniProt P08908)
T1 sequence (P08908 whole entry): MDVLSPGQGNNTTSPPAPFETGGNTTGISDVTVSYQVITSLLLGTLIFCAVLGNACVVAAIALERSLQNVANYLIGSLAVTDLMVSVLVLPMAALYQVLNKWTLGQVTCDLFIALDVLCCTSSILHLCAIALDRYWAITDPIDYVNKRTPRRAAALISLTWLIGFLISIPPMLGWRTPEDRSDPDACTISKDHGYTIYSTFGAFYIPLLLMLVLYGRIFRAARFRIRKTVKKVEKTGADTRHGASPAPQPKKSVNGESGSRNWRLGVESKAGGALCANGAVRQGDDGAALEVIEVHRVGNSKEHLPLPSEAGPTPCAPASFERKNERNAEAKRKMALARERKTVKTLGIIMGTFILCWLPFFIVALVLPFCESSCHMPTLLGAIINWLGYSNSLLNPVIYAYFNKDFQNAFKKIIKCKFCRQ

[2] = target: T2, Muscarinic acetylcholine receptor M1 (Homo sapiens, UniProt P11229); type: functional, cell-based
T2 sequence (P11229 whole entry): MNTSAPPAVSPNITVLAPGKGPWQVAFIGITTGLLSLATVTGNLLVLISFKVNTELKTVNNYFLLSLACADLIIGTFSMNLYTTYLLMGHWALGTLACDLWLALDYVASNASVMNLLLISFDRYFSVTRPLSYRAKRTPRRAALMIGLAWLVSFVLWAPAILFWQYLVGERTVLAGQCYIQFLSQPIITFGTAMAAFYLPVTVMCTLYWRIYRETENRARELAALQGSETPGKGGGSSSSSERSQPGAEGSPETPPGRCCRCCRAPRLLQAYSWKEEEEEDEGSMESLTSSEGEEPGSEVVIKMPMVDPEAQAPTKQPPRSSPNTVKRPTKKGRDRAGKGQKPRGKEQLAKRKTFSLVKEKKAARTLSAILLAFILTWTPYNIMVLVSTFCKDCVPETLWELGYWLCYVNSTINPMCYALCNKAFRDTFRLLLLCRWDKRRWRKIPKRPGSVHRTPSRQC

[3] = target: T3, Muscarinic acetylcholine receptor M2 (Homo sapiens, UniProt P08172)
T3 sequence (P08172 whole entry): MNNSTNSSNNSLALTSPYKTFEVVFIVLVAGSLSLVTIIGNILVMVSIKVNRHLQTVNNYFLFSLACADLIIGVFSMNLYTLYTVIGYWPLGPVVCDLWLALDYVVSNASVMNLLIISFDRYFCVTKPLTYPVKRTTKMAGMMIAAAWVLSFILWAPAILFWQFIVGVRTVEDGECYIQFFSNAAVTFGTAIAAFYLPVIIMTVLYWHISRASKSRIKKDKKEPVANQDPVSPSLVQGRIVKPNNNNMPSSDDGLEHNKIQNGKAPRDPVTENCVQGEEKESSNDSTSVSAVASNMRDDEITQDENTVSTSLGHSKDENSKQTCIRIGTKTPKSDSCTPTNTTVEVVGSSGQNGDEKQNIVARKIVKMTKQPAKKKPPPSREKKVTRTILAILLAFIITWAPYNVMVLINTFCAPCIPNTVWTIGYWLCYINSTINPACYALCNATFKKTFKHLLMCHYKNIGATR

[4] = target: T4, Type-1 angiotensin II receptor (Homo sapiens, UniProt P30556)
T4 sequence (P30556 whole entry): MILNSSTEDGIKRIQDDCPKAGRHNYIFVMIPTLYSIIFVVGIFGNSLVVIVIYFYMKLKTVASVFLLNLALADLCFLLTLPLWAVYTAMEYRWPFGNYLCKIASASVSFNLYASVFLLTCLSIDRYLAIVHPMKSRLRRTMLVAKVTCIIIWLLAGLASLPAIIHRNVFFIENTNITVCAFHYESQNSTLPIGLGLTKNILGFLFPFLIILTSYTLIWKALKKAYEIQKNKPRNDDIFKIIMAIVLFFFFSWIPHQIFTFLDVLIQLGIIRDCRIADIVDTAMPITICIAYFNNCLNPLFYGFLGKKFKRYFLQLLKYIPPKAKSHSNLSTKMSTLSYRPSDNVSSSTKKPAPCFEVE

Thromboxane A2 receptor [5] = target: T5, Thromboxane A2 receptor (Homo sapiens, UniProt P21731); type: functional
T5 sequence (P21731 whole entry): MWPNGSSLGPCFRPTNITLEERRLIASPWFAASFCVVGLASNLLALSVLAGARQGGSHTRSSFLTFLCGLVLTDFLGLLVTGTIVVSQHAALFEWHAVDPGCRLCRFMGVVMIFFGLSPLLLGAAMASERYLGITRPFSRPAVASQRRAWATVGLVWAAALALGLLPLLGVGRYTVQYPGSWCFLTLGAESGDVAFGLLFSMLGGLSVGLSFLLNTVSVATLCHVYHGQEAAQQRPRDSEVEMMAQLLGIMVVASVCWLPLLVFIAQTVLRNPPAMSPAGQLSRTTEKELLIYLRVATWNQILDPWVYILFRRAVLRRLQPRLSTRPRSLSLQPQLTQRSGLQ

Thromboxane A2 receptor [6] = target: T5, Thromboxane A2 receptor; type: functional, cell-based
Also: assay procedure not described here.

AC50 [1]: 260 nM
SMILES: COc1ccccc1N1CCN(CCCNc2cc(=O)n(C)c(=O)n2C)CC1

AC50 [2]: 26000 nM
AC50 [3]: > 30000 nM
SMILES: CC(C[N+](C)(C)C)OC(N)=O (stereo unspecified) [BETHANECHOL]

AC50 [4]: 5 nM and 5.5 nM
SMILES: CCCCc1ncc(/C=C(\Cc2cccs2)C(=O)O)n1Cc1ccc(C(=O)O)cc1 [EPROSARTAN]

AC50 (Thromboxane A2 receptor [5]): > 10000 nM
AC50 (Thromboxane A2 receptor [6]): > 10000 nM
SMILES: CC(C)OC(=O)CCC/C=C\C[C@@H]1[C@@H](CC[C@@H](O)CCc2ccccc2)[C@H](O)C[C@@H]1O [LATANOPROST]
